Reference: patent US20250177382A1, “NEK7 INHIBITORS” (Halia Therapeutics, Inc., priority 2021, published 2025)

The compounds below were run on IL-1β release in THP-1 cells (assay: IL-1β release assay). Details: Homo sapiens; PMA-differentiated THP-1 cells, LPS + nigericin, cleaved IL-1β by JESS.
Format: cell-based
Experimental: Approximately 1.5 million THP-1 cells were plated in each well of a 6-well TC plate and incubated with 40 nM PMA in RPMI (10% FBS, 1% Penstrep) for 24 hours. The media was then removed and cells were rested in RPMI (10% FBS, 1% Penstrep) for 24 hours after which time the media was removed and cells were pre-treated for 2 hours with various concentrations of compounds of interest (typically serial 3-fold dilution in RPMI+5% FBS, concentrations ranging from 1 μM to 0.5 nM) in RPMI (5% FBS). The media was again removed and cells were incubated with 250 ng/mL LPS and compounds of interest (concentrations as above) in RMPI (5% FBS) for 2 hours. The media was removed for a last time and cells were incubated with 20 μM nigericin and compounds of interest (concentrations as above) in Opti-MEM for 30 minutes. Cell media was then collected and the amount of cleaved IL-1β was determined using a JESS instrument (Protein Simple) and standard protocols. Cleaved Il-1β antibody was obtained from Cell Signaling (catalogue #83186S) and was used at 1:20 dilution in antibody diluent 2. Protein Simple 1× anti-Rabbit HRP secondary antibody was used along with Protein Simple luminol and peroxide for chemiluminescent detection. Primary antibody incubation time was increased from 30 minutes to 60 minutes.
(§1) Representative compounds were tested for inhibitory activity against NEK7 and IL-1β release according to the procedures described above.

With `CN1CCN(Cc2ccc(NC(=O)Nc3ccc(Oc4ccnc5[nH]cc(Cl)c45)cc3F)cc2C(F)(F)F)CC1` [Example I-1, 1-(4-((3-chloro-1H-pyrrolo[2,3-b]pyridin-4-yl)oxy)-2-fluorophenyl)-3-(4-((4-methylpiperazin-1-yl)methyl)-3-(trifluoromethyl)phenyl)urea] the IC50 was < 50 nM.

Each compound was assayed against T1, full-length recombinant human NEK7 (Homo sapiens, UniProt Q8TDX7) (assay: NEK7 enzymatic assay). Details: casein substrate, [32P]-ATP, radiometric P81 filter assay.
T1 construct: full-length recombinant human NEK7; GST (N); purchased SignalChem N09-10G; host or cells: Sf9 insect cells (baculovirus)
T1 sequence (Q8TDX7 whole entry): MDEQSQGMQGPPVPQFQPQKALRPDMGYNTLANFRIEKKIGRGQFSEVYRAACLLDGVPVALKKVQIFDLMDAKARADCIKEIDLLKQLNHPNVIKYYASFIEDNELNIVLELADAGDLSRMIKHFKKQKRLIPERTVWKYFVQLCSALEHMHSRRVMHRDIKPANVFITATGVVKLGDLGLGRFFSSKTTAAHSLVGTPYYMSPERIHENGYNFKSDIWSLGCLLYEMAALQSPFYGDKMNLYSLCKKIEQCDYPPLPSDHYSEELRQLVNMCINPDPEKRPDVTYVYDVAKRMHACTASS
Format: biochemical
Experimental: Casein substrate (from bovine milk, hydrolyzed and partially dephosphorylated mixture of α, β, and κ caseins, obtained from Sigma Aldrich, catalogue #C4765, diluted in distilled water to a final concentration of 1 mg/mL, assay concentration 20 μM) and full-length recombinant human NEK7 (expressed by baculovirus in Sf9 insect cells using a N-terminal GST tag, obtained from SignalChem, catalogue #N09-10G, […], assay concentration 70 nM) were mixed in assay buffer (20 mM Hepes pH 7.5, 10 mM MgCl2, 1 mM EGTA, 0.02% Brij35, 0.02 mg/mL BSA, 0.1 mM […], 2 mM DTT, 1% DMSO). Compounds of interest (in DMSO, serial 3-fold dilution from 10 μM to 0.5 nM) or control (1% DMSO) were dispensed into the kinase reaction mixture by Acoustic technology (Echo550; nanoliter range). After incubation at room temperature for 20 minutes, the kinase reaction was initiated by addition of [^32P]-ATP (Specific activity 10 μUCi/μl) and the mixture was incubated at room temperature for 2 hours. The reaction was then stopped by spotting the reaction mixture on strips of phosphocellulose P81 paper. Following washing, the radioactivity of the P81 paper was measured and kinase activity data were expressed as the percent remaining kinase activity in test samples compared to vehicle (dimethyl sulfoxide) reactions. IC50 values and curve fits were obtained using Prism (GraphPad Software).
as §1

First: CN1C[C@@H]2CN(Cc3ccc(NC(=O)Nc4ccc(Oc5ccnc6[nH]cc(Cl)c56)cc4F)cc3C(F)(F)F)C[C@@H]2C1 [Example I-15, 1-(4-((3-chloro-1H-pyrrolo[2,3-b]pyridin-4-yl)oxy)-2-fluorophenyl)-3-(4-(((3aR,6aS)-5-methylhexahydropyrrolo[3,4-c]pyrrol-2(1H)-yl)methyl)-3-(trifluoromethyl)phenyl)urea]
Second: CN1CCCN(Cc2ccc(NC(=O)Nc3ccc(Oc4ccnc5[nH]cc(Cl)c45)cc3F)cc2C(F)(F)F)CC1 [Example I-33, 1-(4-((3-chloro-1H-pyrrolo[2,3-b]pyridin-4-yl)oxy)-2-fluorophenyl)-3-(4-((4-methyl-1,4-diazepan-1-yl)methyl)-3-(trifluoromethyl)phenyl)urea]
The IC50 of the first is lower: 200 to 500 nM for the first, 500 to 2000 nM for the second. The first is the more potent here.

`CN1CCN(Cc2ccc(NC(=O)Nc3ccc(Oc4ccnc5[nH]cc(Cl)c45)cc3F)cc2C(F)(F)F)C2(CC2)C1` [Example I-20, 1-(4-((3-chloro-1H-pyrrolo[2,3-b]pyridin-4-yl)oxy)-2-fluorophenyl)-3-(4-((7-methyl-4,7-diazaspiro[2.5]octan-4-yl)methyl)-3-(trifluoromethyl)phenyl)urea] and `CN1CCN(Cc2ccc(NC(=O)Nc3ccc(Oc4ccnc5[nH]cc(Cl)c45)cc3F)cc2C(F)(F)F)CC12CC2` [Example I-60, 1-(4-((3-chloro-1H-pyrrolo[2,3-b]pyridin-4-yl)oxy)-2-fluorophenyl)-3-(4-((4-methyl-4,7-diazaspiro[2.5]octan-7-yl)methyl)-3-(trifluoromethyl)phenyl)urea] cannot be ordered by IC50: > 2000 nM for the first, > 2000 nM for the second.

`CN1CCN(Cc2ccc(NC(=O)Nc3ccc(Oc4ccnc5[nH]cc(Cl)c45)cc3F)cc2C2CC2)CC1` [Example I-26, 1-(4-((3-chloro-1H-pyrrolo[2,3-b]pyridin-4-yl)oxy)-2-fluorophenyl)-3-(3-cyclopropyl-4-((4-methylpiperazin-1-yl)methyl)phenyl)urea] and `CN1CCN(Cc2ccc(NC(=O)Nc3ccc(Oc4ccnc5[nH]cc(Cl)c45)cc3F)cc2Cl)CC1` [Example I-30, 1-(4-((3-chloro-1H-pyrrolo[2,3-b]pyridin-4-yl)oxy)-2-fluorophenyl)-3-(3-chloro-4-((4-methylpiperazin-1-yl)methyl)phenyl)urea] fall in the same range of IC50: 500 to 2000 nM for the first, 500 to 2000 nM for the second.

First: Cc1cn(-c2ccc(NC(=O)Nc3ccc(Oc4ccnc5[nH]cc(Cl)c45)cc3F)cc2C(F)(F)F)cn1 [Example I-32, 1-(4-((3-chloro-1H-pyrrolo[2,3-b]pyridin-4-yl)oxy)-2-fluorophenyl)-3-(4-(4-methyl-1H-imidazol-1-yl)-3-(trifluoromethyl)phenyl)urea]
Second: O=C(Nc1ccc(CN2CCNCC2)c(C(F)(F)F)c1)Nc1ccc(Oc2ccnc3[nH]cc(Cl)c23)cc1F [Example I-55, 1-(4-((3-chloro-1H-pyrrolo[2,3-b]pyridin-4-yl)oxy)-2-fluorophenyl)-3-(4-(piperazin-1-ylmethyl)-3-(trifluoromethyl)phenyl)urea]
The IC50 of the first is higher: > 2000 nM for the first, 200 to 500 nM for the second.

`CN1CCN(Cc2ncc(NC(=O)Nc3ccc(Oc4ccnc5[nH]cc(Cl)c45)cc3F)cc2C(F)(F)F)CC1` [Example I-46, 1-(4-((3-chloro-1H-pyrrolo[2,3-b]pyridin-4-yl)oxy)-2-fluorophenyl)-3-(6-((4-methylpiperazin-1-yl)methyl)-5-(trifluoromethyl)pyridin-3-yl)urea] and `CN1CCN(Cc2cc(NC(=O)Nc3ccc(Oc4ccnc5[nH]cc(Cl)c45)cc3F)cc(C(F)(F)F)c2)CC1` [Example I-65, 1-(4-((3-chloro-1H-pyrrolo[2,3-b]pyridin-4-yl)oxy)-2-fluorophenyl)-3-(3-((4-methylpiperazin-1-yl)methyl)-5-(trifluoromethyl)phenyl)urea] fall in the same range of IC50: 500 to 2000 nM for the first, 500 to 2000 nM for the second.

First: O=C(Nc1ccc(CN2CCC(F)(F)CC2)c(C(F)(F)F)c1)Nc1ccc(Oc2ccnc3[nH]cc(Cl)c23)cc1F [Example I-47, 1-(4-((3-chloro-1H-pyrrolo[2,3-b]pyridin-4-yl)oxy)-2-fluorophenyl)-3-(4-((4,4-difluoropiperidin-1-yl)methyl)-3-(trifluoromethyl)phenyl)urea]
Second: O=C(Nc1ccc(CN2CCN(CCF)CC2)c(C(F)(F)F)c1)Nc1ccc(Oc2ccnc3[nH]cc(Cl)c23)cc1F [Example I-50, 1-(4-((3-chloro-1H-pyrrolo[2,3-b]pyridin-4-yl)oxy)-2-fluorophenyl)-3-(4-((4-(2-fluoroethyl)piperazin-1-yl)methyl)-3-(trifluoromethyl)phenyl)urea]
The IC50 of the first is higher: > 2000 nM for the first, 500 to 2000 nM for the second. The second is the more potent here.

First: O=C(Nc1ccc(OC2CCN(C3COC3)CC2)c(C(F)(F)F)c1)Nc1ccc(Oc2ccnc3[nH]cc(Cl)c23)cc1F [Example I-48, 1-(4-((3-chloro-1H-pyrrolo[2,3-b]pyridin-4-yl)oxy)-2-fluorophenyl)-3-(4-((1-(oxetan-3-yl)piperidin-4-yl)oxy)-3-(trifluoromethyl)phenyl)urea]
Second: CCN1CCC(Oc2ccc(NC(=O)Nc3ccc(Oc4ccnc5[nH]cc(Cl)c45)cc3F)cc2C(F)(F)F)CC1 [Example I-64, 1-(4-((3-chloro-1H-pyrrolo[2,3-b]pyridin-4-yl)oxy)-2-fluorophenyl)-3-(4-((1-ethylpiperidin-4-yl)oxy)-3-(trifluoromethyl)phenyl)urea]
The IC50 of the first is higher: > 2000 nM for the first, < 200 nM for the second. The second is the more potent here.

`CC(=O)N1CCN(Cc2ccc(NC(=O)Nc3ccc(Oc4ccnc5[nH]cc(Cl)c45)cc3F)cc2C(F)(F)F)CC1` [Example I-49, 1-(4-((4-acetylpiperazin-1-yl)methyl)-3-(trifluoromethyl)phenyl)-3-(4-((3-chloro-1H-pyrrolo[2,3-b]pyridin-4-yl)oxy)-2-fluorophenyl)urea] and `CN(C)C1CCN(Cc2ccc(NC(=O)Nc3ccc(Oc4ccnc5[nH]cc(Cl)c45)cc3F)cc2C(F)(F)F)CC1` [Example I-57, 1-(4-((3-chloro-1H-pyrrolo[2,3-b]pyridin-4-yl)oxy)-2-fluorophenyl)-3-(4-((4-(dimethylamino)piperidin-1-yl)methyl)-3-(trifluoromethyl)phenyl)urea] cannot be ordered by IC50: > 2000 nM for the first, > 2000 nM for the second.

`Cc1c[nH]c2nccc(Oc3ccc(NC(=O)Nc4cnc(OC5CCN(C)CC5)c(C(F)(F)F)c4)c(F)c3)c12` [Example I-61, 1-(2-fluoro-4-((3-methyl-1H-pyrrolo[2,3-b]pyridin-4-yl)oxy)phenyl)-3-(6-((1-methylpiperidin-4-yl)oxy)-5-(trifluoromethyl)pyridin-3-yl)urea] and `Cc1c[nH]c2nccc(Oc3ccc(NC(=O)Nc4ccc(OC5CCN(C)CC5)c(C(F)(F)F)c4)c(F)c3)c12` [Example I-63, 1-(2-fluoro-4-((3-methyl-1H-pyrrolo[2,3-b]pyridin-4-yl)oxy)phenyl)-3-(4-((1-methylpiperidin-4-yl)oxy)-3-(trifluoromethyl)phenyl)urea] cannot be ordered by IC50: < 200 nM for the first, < 200 nM for the second.

Going from `CN1CCN(Cc2ccc(NC(=O)Nc3ccc(Oc4ccnc5[nH]cc(Cl)c45)cc3F)cc2OC(F)(F)F)CC1` [Example I-62, 1-(4-((3-chloro-1H-pyrrolo[2,3-b]pyridin-4-yl)oxy)-2-fluorophenyl)-3-(4-((4-methylpiperazin-1-yl)methyl)-3-(trifluoromethoxy)phenyl)urea] to `CN1CCN(C2CC(F)(F)c3cc(NC(=O)Nc4ccc(Oc5ccnc6[nH]cc(Cl)c56)cc4F)ccc32)CC1` (stereo not shown) [Example I-67, 1-(4-((3-chloro-1H-pyrrolo[2,3-b]pyridin-4-yl)oxy)-2-fluorophenyl)-3-(3,3-difluoro-1-(4-methylpiperazin-1-yl)-2,3-dihydro-1H-inden-5-yl)urea], the IC50 rises from < 200 nM to > 2000 nM.

Compound `CN1CCC(Oc2ccc(NC(=O)Nc3ccc(Oc4ccnc5[nH]cc(Cl)c45)cc3F)cc2C(F)(F)F)C(F)C1` (stereo not shown) [Example I-66, 1-(4-((3-chloro-1H-pyrrolo[2,3-b]pyridin-4-yl)oxy)-2-fluorophenyl)-3-(4-((3-fluoro-1-methylpiperidin-4-yl)oxy)-3-(trifluoromethyl)phenyl)urea] has an IC50 of 500 to 2000 nM.
